Counter-ions that a name gives are not always drawn.
Tested on: rhIFNγ stimulated STAT-3 phosphorylation in the A549 human epithelial cell line
Assay: A549 Cell Assay: Inhibition of pSTAT3
Format: cell-based
Conditions: A549 cells
Method: A549 Cell Assay: Inhibition of pSTAT3
An assay measuring the efficacy of JAK inhibitors on the functional response of recombinant human interferon γ (rhIFNγ) stimulated STAT-3 phosphorylation in the A549 human epithelial cell line.
A549 cells (ATCC #CCL-185), were plated at 30,000 cells/well in 96 well flat bottomed tissue culture plates (BD#353072) in 200 μL of growth medium (DMEM, Pfizer media prep, with 10% Fetal Bovine Serum, Sigma #F4135, 2 mM L-Glutamine, Pfizer media prep, 100 U/mL penicillin, Pfizer media prep, and 200 μg/ml streptomycin, Pfizer media prep), and cultured at 37° C., 5% CO2 incubator for 18 hours. Growth medium was removed by vacuum aspiration (V&P Scientific #vp187 bp-60), and 90 μL of pre-warmed assay medium (DMEM with 0.2% BSA, Miltenyi #130-091-376) was added to each well and incubated for 15 minutes at 37° C. 10 μL of vehicle control or test compound (final concentration range of 0.3 nM to 10 μM with 0.1% DMSO) was added to the cells. Plates were incubated at 37° C. for 1 hour. After compound incubation, 10 μL of 220 ng/mL recombinant human IFNγ (R&D Systems #285-IF, final rhIFNγ concentration of 20 ng/mL) was added to the cells and plates were incubated for 30 minutes at 37° C. Wells containing A549 cells, medium with 0.1% DMSO and no rhIFNγ were used as background controls. After rhIFNγ stimulation, media was aspirated from each well and 35 μL/well of iced-cold MSD lysis buffer containing protease and phosphatase inhibitors from Phospho-STAT3 Tyr705 assay kit (Meso-Scale Discovery #K150DID) was added to each well. Plates were incubated at 4° C. with shaking for 30 minutes. Cell lysates were assayed following the MSD Phospho-STAT3 Tyr705 assay kit protocol to detect pSTAT3.
Data were collected and transformed into percent inhibition and calculated using the following formula: […]

IC50 [µM] | SMILES
0.0301 | CCc1cc(O)c(F)cc1-c1nc(NCc2ccccc2N(C)S(C)(=O)=O)c2cn[nH]c2n1 [Example 155, N-[2-({[6-(2-Ethyl-5-fluoro-4-hydroxyphenyl-1H-pyrazolo[3,4-d]pyrimidin-4-yl]amino}methyl)phenyl]-N-methylmethanesulfonamide hydrochloride]
0.0313 | CCc1cc(O)c(F)cc1-c1cc2[nH]nc(-c3nc(C)c(C)[nH]3)c2c(NCc2ccccc2N(C)S(C)(=O)=O)n1 [Example 158]

Same assay, conditions: Homo sapiens; A549 cells

IC50 [µM] | SMILES
0.0262 | CCc1cc(O)c(F)cc1-c1cc2[nH]nc(-c3ncc[nH]3)c2c(NCc2ccccc2N(C)S(C)(=O)=O)n1 [Example 157, N-[2-({[6-(2-Ethyl-5-fluoro-4-hydroxyphenyl)-3-(1H-imidazol-2-yl)-1H-pyrazolo[4,3-c]pyridin-4-yl]amino}methyl)phenyl]-N-methylmethanesulfonamide]
0.433 | CCN(c1ccc(O)cc1CNc1nc(-c2cc(F)c(O)cc2CC(F)(F)F)cc2[nH]nc(C(=O)NC)c12)S(=O)(=O)c1ccccc1 [Example 36, 4-({2-[ethyl(phenylsulfonyl)amino]-5-hydroxybenzyl}amino)-6-[5-fluoro-4-hydroxy-2-(2,2,2-trifluoroethyl)phenyl]-N-methyl-1H-pyrazolo[4,3-c]pyridine-3-carboxamide]
0.0263 | CCN(c1ccc(C)cc1CNc1nc(-c2cc(F)c(O)cc2CC(F)(F)F)cc2[nH]nc(C(N)=O)c12)S(C)(=O)=O [Example 91, 4-({2-[ethyl(methylsulfonyl)amino]-5-methylbenzyl}amino)-6-[5-fluoro-4-hydroxy-2-(2,2,2-trifluoroethyl)phenyl]-1H-pyrazolo[4,3-c]pyridine-3-carboxamide]
0.0609 | CCc1cc(O)c(F)cc1-c1cc2[nH]nc(C(=O)NC)c2c(N[C@@H](C)c2ccccc2N(C)S(C)(=O)=O)n1 [Example 39, 6-(2-Ethyl-5-fluoro-4-hydroxyphenyl)-N-methyl-4-{[(1S)-1-{2-[methyl(methylsulfonyl)amino]phenyl}ethyl]amino}-1H-pyrazolo[4,3-c]pyridine-3-carboxamide]
0.213 | CNC(=O)c1n[nH]c2cc(-c3cc(F)c(O)cc3CC(F)(F)F)nc(NCc3ccccc3CS(N)(=O)=O)c12 [Example 64, 6-[5-fluoro-4-hydroxy-2-(2,2,2-trifluoroethyl)phenyl]-N-methyl-4-{[2-(sulfamoylmethyl)benzyl]amino}-1H-pyrazolo[4,3-c]pyridine-3-carboxamide]
0.0712 | CN(c1ccccc1CNc1nc(-c2cc(F)c(O)cc2CC(F)(F)F)cc2[nH]nc(C(N)=O)c12)S(=O)(=O)c1cccnc1 [Example 61, 6-[5-fluoro-4-hydroxy-2-(2,2,2-trifluoroethyl)phenyl]-4-({2-[methyl(pyridin-3-ylsulfonyl)amino]benzyl}amino)-1H-pyrazolo[4,3-c]pyridine-3-carboxamide]
0.213 | CCN(c1ncc(C)cc1CNc1nc(-c2cc(F)c(O)cc2CC(F)(F)F)cc2[nH]nc(C(N)=O)c12)S(C)(=O)=O [Example 87, 4-[({2-[ethyl(methylsulfonyl)amino]-5-methylpyridin-3-yl}methyl)amino]-6-[5-fluoro-4-hydroxy-2-(2,2,2-trifluoroethyl)phenyl]-1H-pyrazolo[4,3-c]pyridine-3-carboxamide]
1.5 | CN(c1ccc(O)cc1CNc1nc(-c2cc(F)c(O)cc2CC(F)(F)F)nc2[nH]nc(C(N)=O)c12)S(=O)(=O)c1ccccc1 [Example 108, 4-((2-(N-methylphenylsulfonamido)-5-hydroxybenzyl)amino)-6-(5-fluoro-4-hydroxy-2-(2,2,2-trifluoroethyl)phenyl)-1H-pyrazolo[3,4-d]pyrimidine-3-carboxamide]
0.161 | CN(c1ccccc1CNc1nc(-c2cc(F)c(O)cc2CC(F)(F)F)cc2[nH]nc(C(N)=O)c12)S(=O)(=O)c1ccc(N2CCOCC2)nc1 [Example 65, 6-[5-fluoro-4-hydroxy-2-(2,2,2-trifluoroethyl)phenyl]-4-{[2-(methyl{[6-(morpholin-4-yl)pyridin-3-yl]sulfonyl}amino)benzyl]amino}-1H-pyrazolo[4,3-c]pyridine-3-carboxamide]
0.03 | CCN(c1ccc(F)cc1CNc1nc(-c2cc(F)c(O)cc2CC(F)(F)F)cc2[nH]nc(C(N)=O)c12)S(C)(=O)=O [Example 83, 4-((2-(N-ethylmethylsulfonamido)-5-fluorobenzyl)amino)-6-(5-fluoro-4-hydroxy-2-(2,2,2-trifluoroethyl)phenyl)-1H-pyrazolo[4,3-c]pyridine-3-carboxamide]
2.47 | CN(c1ccc(O)cc1CNc1nc(-c2cc(F)c(O)cc2CC(F)(F)F)nc2[nH]nc(C(=O)Nc3ccc(NCCO)nc3)c12)S(C)(=O)=O [Example 99, 6-(5-Fluoro-4-hydroxy-2-(2,2,2-trifluoroethyl)phenyl)-4-((5-hydroxy-2-(N-methylmethylsulfonamido)benzyl)amino)-N-(6-((2-hydroxyethyl)amino)pyridin-3-yl)-1H-pyrazolo[3,4-d]pyrimidine-3-carboxamide]
0.0308 | CCc1cc(O)c(F)cc1-c1cc2[nH]nc(C(=O)NC)c2c(N[C@H](C)c2ccccc2N(C)S(C)(=O)=O)n1 [Example 38, 6-(2-Ethyl-5-fluoro-4-hydroxyphenyl)-N-methyl-4-{[(1R)-1-{2-[methyl(methylsulfonyl)amino]phenyl}ethyl]amino}-1H-pyrazolo[4,3-c]pyridine-3-carboxamide]
> 10 | CNC(=O)c1n[nH]c2nc(-c3cc(F)c(O)cc3CC(F)(F)F)nc(NCc3ccccc3N(C)S(=O)(=O)NC)c12 [Example 110, 6-(5-Fluoro-4-hydroxy-2-(2,2,2-trifluoroethyl)phenyl)-N-methyl-4-((2-(methyl(N-methylsulfamoyl)amino)benzyl)amino)-1H-pyrazolo[3,4-d]pyrimidine-3-carboxamide]
0.0916 | CNC(=O)c1n[nH]c2cc(-c3cc(F)c(O)cc3CC(F)(F)F)nc(NCc3ccccc3N(C)S(=O)(=O)c3ccc(C)nc3)c12 [Example 69, 6-[5-fluoro-4-hydroxy-2-(2,2,2-trifluoroethyl)phenyl]-N-methyl-4-[(2-{methyl[(6-methylpyridin-3-yl)sulfonyl]amino}benzyl)amino]-1H-pyrazolo[4,3-c]pyridine-3-carboxamide]
0.0297 | CCc1cc(O)c(F)cc1-c1cc2[nH]nc(C(=O)NC)c2c(NCCc2ccc(O)cc2)n1 [Example 4, 6-(2-ethyl-5-fluoro-4-hydroxyphenyl)-4-{[2-(4-hydroxyphenyl)ethyl]amino}-N-methyl-1H-pyrazolo[4,3-c]pyridine-3-carboxamide]
0.156 | CNC(=O)c1n[nH]c2cc(-c3cc(F)c(O)cc3CC(F)(F)F)nc(NCc3ncccc3N(C)S(C)(=O)=O)c12 [Example 55, 6-[5-Fluoro-4-hydroxy-2-(2,2,2-trifluoroethyl)phenyl]-N-methyl-4-[({3-[methyl(methylsulfonyl)amino]pyridin-2-yl}methyl)amino]-1H-pyrazolo[4,3-c]pyridine-3-carboxamide]
0.0329 | CCN(c1ccc(Cl)cc1CNc1nc(-c2cc(F)c(O)cc2CC(F)(F)F)cc2[nH]nc(C(N)=O)c12)S(C)(=O)=O [Example 84, 4-((5-chloro-2-(N-ethylmethylsulfonamido)benzyl)amino)-6-(5-fluoro-4-hydroxy-2-(2,2,2-trifluoroethyl)phenyl)-1H-pyrazolo[4,3-c]pyridine-3-carboxamide]
0.0315 | CN(c1ccc(F)cc1CNc1nc(-c2cc(F)c(O)cc2CC(F)(F)F)cc2[nH]nc(C(N)=O)c12)S(C)(=O)=O [Example 88, 6-[5-fluoro-4-hydroxy-2-(2,2,2-trifluoroethyl)phenyl]-4-({5-fluoro-2-[methyl(methylsulfonyl)amino]benzyl}amino)-1H-pyrazolo[4,3-c]pyridine-3-carboxamide]
0.0129 | CCS(=O)(=O)N(C)c1ccccc1CNc1nc(-c2cc(F)c(O)cc2CC(F)(F)F)cc2[nH]nc(C(N)=O)c12 [Example 85, 6-(5-fluoro-4-hydroxy-2-(2,2,2-trifluoroethyl)phenyl)-4-((2-(N-methylethylsulfonamido)benzyl)amino)-1H-pyrazolo[4,3-c]pyridine-3-carboxamide]
0.628 | CNC(=O)c1n[nH]c2cc(-c3cc(F)c(O)cc3CC(F)(F)F)nc(NCc3ccccc3N(C)S(=O)(=O)c3cccc(O)c3)c12 [Example 32, 6-[5-Fluoro-4-hydroxy-2-(2,2,2-trifluoroethyl)phenyl]-4-[(2-{[(3-hydroxyphenyl)sulfonyl](methyl)amino}benzyl)amino]-N-methyl-1H-pyrazolo[4,3-c]pyridine-3-carboxamide]
0.874 | CS(=O)(=O)N(CCO)c1ccccc1CNc1nc(-c2cc(F)c(O)cc2CC(F)(F)F)cc2[nH]nc(C(N)=O)c12 [Example 27, 6-[5-fluoro-4-hydroxy-2-(2,2,2-trifluoroethyl)phenyl]-4-({2-[(2-hydroxyethyl)(methylsulfonyl)amino]benzyl}amino)-1H-pyrazolo[4,3-c]pyridine-3-carboxamide]

Source: patent US10022376B2 (Pfizer Inc., priority 2014, dated 2018)
